Laboratory results: EP0509752A2, “Ophthalmic compositions comprising combinations of a carbonic anhydrase inhibitor and a beta-adrenergic antagonist” (MERCK & CO. INC., priority 1991, dated 1992)

Tested on: Patients with either ocular hypertension or primary open angle glaucoma
Assay: Study of Compound I in combination with timolol: 12 hour diurnal IOP curve (Goldmann applanation tonometer)
Type: in vivo
Details: 2% Compound I, 1 drop to each eye every 12 hours for seven days, ten minutes after timolol 0.5% bid, worse eye analysis, preliminary IOP data
Description: Study of (S,S)-(-)-5,6-dihydro-4-ethylamino-6-methyl-4H-thieno[2,3b]thiopyran-2-sulfonamide-7,7-dioxide (I) in combination with Timolol
Patients aged 40 or over, with either ocular hypertension or primary open angle glaucoma with an intraocular pressure (IOP) in one or both eyes of 22 mmHg or more at one time point each day while receiving timolol 0.5% twice a day (bid) alone were admitted to the study. Patients had been on timolol 0.5% bid, either alone or in combination for at least three weeks prior to study entry and had been on timolol 0.5% bid as their sole glaucoma therapy for at least two weeks prior to study admission.
Secondary glaucoma was an exclusion as was a history of glaucoma surgery or laser trabeculoplasty/gonioplasty. Patients for whom timolol was contraindicated by the datasheet were excluded and also excluded were those on a concurrent β-blocker, carbonic anhydrase inhibitor, or clonidine. […]
• 1. […] Patients were admitted for a 12 hour diurnal curve (i.e., IOP recorded at 08.00, 09.00, 10.00, 12.00, 14.00, 16.00, 18.00, 20.00 hours approximately, the 08.00 recording was immediately prior to instillation of the drops). All pressures were measured by the same observer using the same Goldmann applanation tonometer. • 3. […] On Day 2, the IOP of each patient was measured at 8 am and 9 am, and a 12 hour diurnal curve was recorded on Day 8. preliminary IOP data follow : […]

CCN[C@H]1C[C@H](C)S(=O)(=O)c2sc(S(N)(=O)=O)cc21 [Compound I, (S,S)-(-)-5,6-dihydro-4-ethylamino-6-methyl-4H-thieno[2,3b]thiopyran-2-sulfonamide-7,7-dioxide]
effect over the effect of timolol alone (percent change in IOP on Day 8 from prestudy): 13%-21%
